The values that follow come from US11311610B2, “Immune-modulating agents and uses therefor” (UNIVERSITY OF TECHNOLOGY SYDNEY, priority 2010, dated 2022).

One data set relates to RAW macrophages. Briefly: ATP induced macrophage cell death (LDH release). It is filed as cell-based, murine. Particulars: 20 μg/mL pre-treatment 1 h, then ATP 5 mM 2 h. As for the experimental part: FIG. 16 is a graphical representation showing that FhHDM-1 P3 prevents ATP induced cell death in RAW macrophages. RAW macrophages were pretreated with either FhHDM-1 (20 μg/mL) or FhHDM-1 p3 (20 μg/mL) for 1 h, then washed and cultured in the presence of ATP (5 mM) for 2 h. Cell death (% cytotoxicity) was quantified according to the amount of LDH released by the cells into culture media.
Raw macrophages were pre-treated with either HDM (20 μg/mL) or FhHDM-1 P3 (20 μg/mL) for 1 h, washed and then cultured in the presence of ATP (5 mM) for 2 h. The culture supernatants were collected and assayed for LDH activity with an LDH release kit. The amount of LDH release by cells treated with ATP only was used to represent 100% cytotoxicity.

The conditions of data set [1]: established T1D, early randomized trials; cited from earlier work.
In data set [2] the test system is ATPase activity associated with lysosomal membranes (equivalent to vATPase activity). Nature of the data set: ATPase activity of enriched lysosomal membranes. Format: biochemical, murine. Particulars: lysosomal membranes from RAW264.7 macrophage lysates. As for the experimental part:
FIG. 17 is a graphical representation showing that FhHDM-1 P3 inhibits ATPase activity associated with lysosomal membranes in a concentration-dependent manner. A cellular fraction enriched for lysosomes was prepared by sequential centrifugation of RAW264.7 macrophage lysates. The lysosomal membranes were recovered and assayed (with or without HDM peptides) for ATPase activity using a commercially available kit.
FIG. 18 is a diagrammatic representation showing a sequence alignment of various synthetic HDM peptides. The amphipathic helix is shaded in grey as are the mutated residues in peptides nonHP and 2Pro. NonHP is a variant of FhHDM-1 P3 in which the hydrophobic face of the FhHDM-1 amphipathic helix was removed. 2Pro is a variant of FhHDM-1 P3 in which two prolines substitutions were incorporated to disrupt the alpha-helix. Cons_p3 is a consensus peptide corresponding to various FhHDM-1 homologs. All peptides in the alignment were tested for their ability to inhibit the ATPase activity associated with enriched lysosomal membranes (prepared from RAW macrophages). Those with inhibitory activity are shown in bold text.
A cellular fraction enriched for lysosomes was prepared by sequential centrifugation of RAW264.7 macrophage lysates. The lysosome pellet was extracted with water and the resulting lysosomal membranes were recovered and assayed (with or without HDM peptides) for ATPase activity using a commercially available kit.

Another data set deals with RAW264.7 cells. Briefly: Binding of FITC-conjugated LPS to RAW 264.7 cells (flow cytometry). It is filed as cell-based, murine. The conditions noted are these: 0.1-10 μg/mL, 20 min at 4° C. On the procedure:
(§1) FIG. 9 is a graphical representation showing LPS neutralization by FhHDM-1. The ability of FhHDM-1 (Δ), FhHDM-1 p1 (●) or FhHDM-1 p3 (▪) to bind to LPS was investigated by (A) incubating a range of concentrations of proteins (0.02-2 μg/well) in an LPS-coated (100 ng/well) microtitre plate. Bound peptides were detected by ELISA using rabbit anti-FhHDM-1 as a primary antibody. (B) FhHDM-1 or derived peptides (0.1 μg) were incubated in the presence of LPS (0.05-5 μg/well) and bound peptides measured as described above. Binding of peptides to the LPS-immobilized plates was expressed as a percentage of that measured for 2 μg (for panel A) or 0.1 μg (for panel B) of FhHDM-1. Data are the means±SD from three separate experiments. (C) FhHDM-1 and FhHDM-1 p3 but not FhHDM-1 p1 reduced the interaction between LPS and LBP as effectively as LL-37. LPS-coated microtitre plates were incubated with 5 μg/well of LL-37, FhHDM-1 or derived peptides for 1 h prior to the addition of 10% human sera in PBS. Interaction of LBP with LPS was measured by ELISA using an anti-LBP primary antibody and expressed as a percentage of that detected for 10% sera in the absence of added peptides. Data are the mean±SD of three separate experiments. Statistical significance was calculated using the student t-test and represent a comparison to the binding of 10% sera to immobilized LPS. (D) Binding of FITC-conjugated LPS to RAW264.7 cells was inhibited by LL-37, FhHDM-1 and peptides. […] The binding of FITC-LPS was analyzed by flow cytometry. LPS binding was expressed as a percentage of the mean fluorescence obtained for the addition of FITC-LPS to cells in the absence of peptides. […] Two hours later, sera was collected and serum levels of TNF and (F) IL-10 measured by ELISA. (G) Peritoneal macrophages were isolated, cultured unstimulated in media overnight and then levels of TNF and (H) IL-10 in the culture measured by ELISA. […]
The effect of FhHDM-1 and derived peptides on the binding of FITC-LPS to CD14+ cells was determined by flow cytometry of the murine macrophage cell line RAW264.7. […]
On the technique in general: A flow cytometer gives signals particle by particle.

Data set [3] relates to interaction of LPS with LPS-binding protein (LBP). Briefly: Assay for the interaction of LPS with LBP (ELISA). Also on record: species or system mouse. The conditions noted are these: 5 μg/well, 1 h before 10% sera; ELISA with anti-LBP. As for the experimental part:
as §1
The ability of FhHDM-1 and derived peptides to block the interaction of LPS with LPB was assessed by ELISA using an anti-LBP primary antibody. […]
Background: ELISA stands for enzyme-linked immunosorbent assay.

The subject of data set [4] is LPS-induced inflammatory response. Nature of the data set: Endotoxin (LPS)-induced inflammation in mice, co-injection. Format: in vivo, BALB/c mice. As for the experimental part: FIG. 9 is a graphical representation showing LPS neutralization by FhHDM-1. The ability of FhHDM-1 (Δ), FhHDM-1 p1 (●) or FhHDM-1 p3 (▪) to bind to LPS was investigated by (A) incubating a range of concentrations of proteins (0.02-2 μg/well) in an LPS-coated (100 ng/well) microtitre plate. Bound peptides were detected by ELISA using rabbit anti-FhHDM-1 as a primary antibody. (B) FhHDM-1 or derived peptides (0.1 μg) were incubated in the presence of LPS (0.05-5 μg/well) and bound peptides measured as described above. Binding of peptides to the LPS-immobilized plates was expressed as a percentage of that measured for 2 μg (for panel A) or 0.1 μg (for panel B) of FhHDM-1. Data are the means±SD from three separate experiments. (C) FhHDM-1 and FhHDM-1 p3 but not FhHDM-1 p1 reduced the interaction between LPS and LBP as effectively as LL-37. LPS-coated microtitre plates were incubated with 5 μg/well of LL-37, FhHDM-1 or derived peptides for 1 h prior to the addition of 10% human sera in PBS. Interaction of LBP with LPS was measured by ELISA using an anti-LBP primary antibody and expressed as a percentage of that detected for 10% sera in the absence of added peptides. Data are the mean±SD of three separate experiments. Statistical significance was calculated using the student t-test and represent a comparison to the binding of 10% sera to immobilized LPS. (D) Binding of FITC-conjugated LPS to RAW264.7 cells was inhibited by LL-37, FhHDM-1 and peptides. RAW264.7 cells (5×10^5 cells/mL) were incubated with 1 μg/mL of FITC-conjugated LPS in the presence of increasing concentrations (0.1-10 μg/mL) of FhHDM-1, FhHDM-1 p1 and FhHDM-1 p3 and LL-37 in RPMI 1640 containing 10% FBS for 20 min at 4° C. The binding of FITC-LPS was analyzed by flow cytometry. LPS binding was expressed as a percentage of the mean fluorescence obtained for the addition of FITC-LPS to cells in the absence of peptides. Data are the mean±SD of two independent experiments. (E) FhHDM-1 and FhHDM-1 p3 both suppress the inflammatory response induced by LPS in mice. BALB/c mice were intra-peritoneally injected with 1 μg of LPS alone or combined with 1 μg of FhHDM-1, FhHDM-1 p3 or LL-37. Two hours later, sera was collected and serum levels of TNF and (F) IL-10 measured by ELISA. (G) Peritoneal macrophages were isolated, cultured unstimulated in media overnight and then levels of TNF and (H) IL-10 in the culture measured by ELISA. Data are the mean±SD of six mice in each group. Statistical significance represents a comparison to the levels of cytokines secreted by mice given LPS only.
Human Defense peptides protect against harmful inflammatory responses by preventing activation of macrophages by classical TLR ligands such as LPS (Scott et al. 2002, J. Immunol. 169, 3883-3891). Here, the inventors employed a murine model to examine whether FhHDM-1 and derived peptides can suppress LPS-induced Th1 inflammation. BALB/c mice were injected intra-peritoneally with 1 μg of LPS alone or LPS combined with 1 μg of FhHDM-1, FhHDM-1 p3 or LL-37. Two hours later, sera was collected and serum levels of the pro-inflammatory mediators TNF and IL-10 were measured by ELISA. […] Because macrophages are the main source of pro-inflammatory mediators in this murine model of inflammation, peritoneal macrophages were isolated from treated mice (LPS±FhHDM-1, peptides or LL-37 as described above), cultured unstimulated in media overnight and then levels of TNF and IL-10 in the culture media were measured by ELISA.
Six week-old female BALB/c mice were purchased from ARC (Perth, Australia) and maintained according to the guidelines of the University of Technology Sydney Animal Care and Ethics committee. For the analysis for endotoxin-induced inflammation, mice were intra-peritoneally injected with 1 μg of E. coli LPS (serotype 111:B4; Sigma) either with or without 1 μg FhHDM-1 or derived peptides. After 2 h mice were sacrificed by cervical dislocation. […]

The mark [5] stands for this setting: BALB/c mice, 1 μg LPS mixed with 1 μg i.p., 2 h.
Where [6] appears, read: macrophages from treated mice, cultured unstimulated overnight.

Where a SMILES comes first, the peptide text is derived from it.

For the compound `CC[C@H](C)[C@H](NC(=O)[C@H](CCCCN)NC(=O)[C@H](CCC(=O)O)NC(=O)CNC(=O)[C@H](CC(C)C)NC(=O)[C@H](CC(N)=O)NC(=O)[C@H](CC(=O)O)NC(=O)[C@H](CCCCN)NC(=O)[C@H](C)NC(=O)[C@H](CC(C)C)NC(=O)[C@H](Cc1ccc(O)cc1)NC(=O)[C@H](C)NC(=O)[C@H](CCSC)NC(=O)[C@H](C)N)C(=O)N[C@H](C(=O)N[C@@H](CCC(=O)O)C(=O)N[C@H](C(=O)N[C@H](C(=O)N[C@H](C(=O)N[C@H](C(=O)N[C@@H](CC(C)C)C(=O)N[C@@H](CC(C)C)C(=O)N[C@@H](CC(N)=O)C(=O)N[C@@H](CCCNC(=N)N)C(=O)N[C@@H](CC(C)C)C(=O)N[C@H](C(=O)N[C@@H](CC(=O)O)C(=O)N[C@@H](CCCNC(=N)N)C(=O)N[C@@H](CC(C)C)C(=O)N[C@@H](CCC(=O)O)C(=O)N[C@@H](CCCCN)C(=O)N[C@@H](Cc1ccc(O)cc1)C(=O)N[C@@H](C)C(=O)NCC(=O)O)[C@@H](C)O)[C@@H](C)CC)[C@@H](C)O)[C@@H](C)CC)C(C)C)[C@@H](C)O` [FhHDM-1 p3] (H-AMAYLAKDNLGEKITEVITILLNRLTDRLEKYAG-OH), the “LDH release induced by ATP (cytotoxicity of ATP)” value in the data set on RAW macrophages is reported as “inhibited LDH release”.
Consider `Cn1cnc([N+](=O)[O-])c1Sc1ncnc2nc[nH]c12` [azathioprine], for which the “treated patients becoming independent of insulin therapy” value in data set [1] is “approximately 50%”.
“HDMp2: SEQ ID NO:122, 27 aa, comprising a shorter amphipathic helix than FhHDM-1 peptide 3 (NLGEKITEVITILLNRLTDRLEKYAGN; FhHDM-1 peptide 2)”: in data set [2], the “ATPase activity associated with lysosomal membranes” value is recorded as “inhibitory”.
LL-37 [reference compound]: in the data set on RAW264.7 cells, the “binding of FITC-LPS to RAW264.7 macrophages” value is on record as “most strongly inhibited”. Also, the “interaction between LPS and LBP” value in data set [3] is reported as “significantly reduced”. In data set [4] (setting [5]), the “serum levels of IL-10” value is on record as “significant reduction” and the “serum levels of TNF” value is reported as “significant reduction”. For the same compound, in data set [4] (setting [6]), the “LPS-induced secretion of IL-10 from peritoneal macrophages” value is reported as “significantly inhibited” and the “TNF secreted from peritoneal macrophages” value is “did not significantly reduce”.
